Reference: patent publication US20050032807A1, “Methods of treating inflammatory diseases with ammonium salts of ornitihine derivatives” (priority 2003, published 2005)

Tests used:
cell growth in culture = settings: Rosowsky et al., J. Med. Chem. 29, 655-660 (1986); cited from earlier work
[1] = molecular target: T1, dihydrofolate reductase (DHFR) (Mus musculus, UniProt P00375); settings: Rosowsky et al., J. Med. Chem. 29, 655-660 (1986); cited from earlier work
T1 sequence (P00375 1-187): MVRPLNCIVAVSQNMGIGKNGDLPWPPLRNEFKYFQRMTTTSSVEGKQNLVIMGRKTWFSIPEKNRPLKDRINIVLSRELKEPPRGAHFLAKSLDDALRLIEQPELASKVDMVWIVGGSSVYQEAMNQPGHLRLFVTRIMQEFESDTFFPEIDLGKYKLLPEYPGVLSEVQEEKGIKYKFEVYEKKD

[2] = tested on: folylpolyglutamate synthetase (FPGS); settings: Rosowsky et al., J. Med. Chem. 29, 655-660 (1986); cited from earlier work
[3] = lyophilization of the dilute ammonium hydroxide solution to the ammonium salt

product decomposition [3] | SMILES | inhibition of cell growth in culture (cell growth in culture) | inhibition of dihydrofolate reductase (DHFR) [1] | inhibition of folylpolyglutamate synthetase (FPGS) [2]
 | NCCC[C@H](NC(=O)c1ccc(NCc2cnc3nc(N)nc(N)c3n2)cc1)C(=O)O [APA-L-Orn, N^α-(4-amino-4-deoxypteroyl)-L-ornithine] | relatively inactive | potent inhibitor | potent inhibitor
minimal | N.N.Nc1nc(N)c2nc(CNc3ccc(C(=O)N[C@@H](CCCNC(=O)c4ccccc4C(=O)O)C(=O)O)cc3)cnc2n1 [compound 8, N^α-(4-Amino-4-deoxypteroyl)N^δ-hemiphthaloyl-L-ornithine ammonium salt] |  |  | 
